From ChEMBL document CHEMBL1126000, “Synthesis of 2-substituted-1,3,4-thiadiazole-5-sulphonamides as novel water-soluble inhibitors of carbonic anhydrase” (Bioorg Med Chem Lett, 1991)
In brackets after ≈: the same amount, converted by molar mass. Several values for one entry are separate records, joined by “and”; a condition that tells them apart may be missing. Equal entries are not always repeated.

Columns and labels:
[1] = Solubility in water, at 20 degrees Centigrade.; format: physicochemical
Carbonic anhydrase = Carbonic anhydrase (Bos taurus, UniProt P00921+Q95323+P18915+Q3SZX4)
Description: In vitro concentration that causes 50% inhibition of carbonic anhydrase carbonate hydro-lyase (EC.4.2.1.1) isolated from bovine erythrocyte

SMILES	solubility ([1]; water, read-out: Solubility) [mM]	IC50 (Carbonic anhydrase)	solubility ([1]; buffer) [mM]
Br.N[C@@H](Cc1ccccc1)C(=O)Nc1nnc(S(N)(=O)=O)s1	132	30 nM	
NS(=O)(=O)c1nnc(NC(=O)CNC(=O)OCc2ccccc2)s1	< 0.1	8 nM	
Br.C[C@H](N)C(=O)Nc1nnc(S(N)(=O)=O)s1	701	9 nM	
CC(C)COC(=O)Nc1nnc(S(N)(=O)=O)s1	103 (≈ 28900 µg/mL)	550 nM and 570 nM	
C[C@H](NC(=O)OCc1ccccc1)C(=O)Nc1nnc(S(N)(=O)=O)s1	< 0.1	7 nM	
NS(=O)(=O)c1nnc(NC(=O)[C@H](Cc2ccccc2)NC(=O)OCc2ccccc2)s1	< 0.1	5 nM	

More lines, now with the values ahead:

solubility ([1]; water, read-out: Solubility) [mM]	IC50 (Carbonic anhydrase)	solubility ([1]; buffer) [mM]	SMILES
< 0.1			CC(=O)Nc1nnc(S(N)(=O)=O)s1 [ACETAZOLAMIDE]
896			Br.NCC(=O)Nc1nnc(S(N)(=O)=O)s1
	440 nM and 370 nM	0.7 (≈ 196 µg/mL)	NCCCCC(=O)Nc1nnc(S(N)(=O)=O)s1
